Assay results taken from patent US20250367099A1, “UROLITHIN COMBINATIONS” (priority 2024, published 2025).

Tests used:
C2C12 myotubes = assay: Fatty acid oxidation / mitochondrial respiration analysis on C2C12 myotubes (Seahorse XF96); format: cell-based, Mouse; settings: UA 50 uM, Astaxanthin 20 uM; for induced mitochondrial respiration / Relative Change (%) Compared to DMSO 0.1%: C2C12 myotubes; for induced mitochondrial respiration: 24 hours treatment, vs DMSO; for % increase in maximal mitochondrial respiration: Table 3: change in maximal mitochondrial respiration vs DMSO, 24 hours; for Relative Change (%) Compared to DMSO 0.1%: Table 4
Experimental: Fatty acid oxidation analysis on C2C12 myotubes was measured with a Seahorse XF96 extracellular flux analyzer. […] were seeded at 8,000 cells/well in an XF96 cell culture microplate. Once cells reached confluence, they were differentiated with DMEM (Gibco, 31966047) supplemented with 2% Horse serum, 1% PenStrep and 1% Hepes for 5 days. Cells were treated with UA 50 uM (Amazentis) and Astaxanthin 20 uM (MedChemExpress, LKT-A7476) for 24 hours in substrate-limited media (Gibco, A1443001) supplemented with 0.5 mM glucose, 1 mM glutamine, 1% Oleic acid and 0.5 mM L-Carnitine. Maximal respiration was monitored by injection of 3 µM FCCP in the cartridge. Prior to the assay, cells were incubated in a Fatty acid oxidation medium (111 mM NaCl, 4.7 mM KCl, 1.25 mM CaCI2, 2 mM MgSO4, 1.2 mM NaH2PO4, 5 mM L-Carnitine, 5 mM Hepes, 2.5 mM Glucose) for 20 min, solution must be adjusted to pH 7.4 at 37° C. Mouse muscle C2C12 myotubes were treated for 24 hours with either Urolithin A alone, Astaxanthin alone or a combination of both compounds. Urolithin A alone induced mitochondrial respiration (+8.5%, Table 4). Astaxanthin alone induced mitochondrial respiration (+3.2% Table.4).

interleukin 6 (IL-6) = assay: Cytokine mix (CTX)-induced IL-6 release in normal human dermal fibroblasts (ELISA); format: cell-based; settings: Zinc 100 uM; for Relative Change (%) Compared to CTX: Table 5, IL-6, nHDF; for Relative Change (%) Compared to CTX / reduction of CTX-mediated increase of IL-6: CTX 0.025 ng/ml; for Relative Change (%) Compared to CTX / % reduction IL-6: UA 2.5 uM; for % reduction IL-6: Table 6, IL-6 concentration in cell supernatant, CTX vs CTX + treatment; for reduction of CTX-mediated increase of IL-6: nHDF, urolithin A 2.5 uM, 24 h pre-treatment + 24 h co-treatment
Experimental: The protective effects of urolithin A and Zinc against inflammation induced by a cytokines mix (Cytomix, CTX) in human dermal fibroblasts (nHDF cells) were investigated. A dose of 0.025 ng/ml of Cytokines mix was applied to induce inflammation, measured by quantifying the levels of the pro-inflammatory cytokine interleukin 6 (IL-6) in the cell culture supernatant. For the experiment, cells were first pre-treated with either i) urolithin A 2.5 uM, ii) Zinc at 100 uM, iii) a combination of urolithin A 2.5 uM and Zinc 100 uM, iv) or DMSO as control for 24 h. Then cells were co-treated with both CTX and either urolithin A or Zinc alone or in combination, as above. After 24h, IL-6 was measured in the cell supernatant to assess the ability of Urolithin A and Zinc to reduce Cytokines-induced inflammation.
Normal Human dermal fibroblasts (nHDF) purchased from Promocell (ref. C-12302) were seeded at 6000 cells per well in a 96 well plate (Greiner) using a DMEM Glutamax 1 g D-glucose (Gibco, ref 21885108) supplemented with FBS 10% (PanBiotech, ref P30-3033), 1% PenStrep (Biowest) and 1% Hepes (Biowest). All media were sterilized with a 0.45 μm filter unit (VWR). The day after the seeded cells were treated for 24 h with 1) Urolithin A (UA) resuspended in DMSO, Zinc gluconate (MedChemExpress Ref. HY-W145499) or a combination of the two at the indicated doses. Cytokine mix (“cytomix”) was added in addition of the previous treatment for another 24h, cytokines were used equally for a total and final concentration of 0.025 ng/ml (mIFN-g (roche ref.11276905001), TNF-α (Peprotech ref. 300-01A) and IL-b (Proteintech ref. 200-01B)). The medium was collected and an ELISA for Interleukin-6 were performed following the instruction provided by the supplier (Proteintech ref. KE10007). Finally, the absorbance at a wavelength of 450 nm was measured using a microplate plate reader (Fluostar Optima, BMG Labtech). IL-6 data were finally normalized over cell number, calculated with a cell viability assay (Promega, ref. G7571).

O=c1oc2cc(O)ccc2c2ccc(O)cc12 [Urolithin A]
induced mitochondrial respiration (C2C12 myotubes): +8.5% | % increase in maximal mitochondrial respiration (C2C12 myotubes): +8.5% | Relative Change (%) Compared to DMSO 0.1% (C2C12 myotubes): 8.4% | Relative Change (%) Compared to CTX (interleukin 6 (IL-6)): −25.05% | % reduction IL-6 (interleukin 6 (IL-6)): 25% | reduction of CTX-mediated increase of IL-6 (interleukin 6 (IL-6)): 25%

CC1=C(/C=C/C(C)=C/C=C/C(C)=C/C=C/C=C(C)/C=C/C=C(C)/C=C/C2=C(C)C(=O)[C@@H](O)CC2(C)C)C(C)(C)C[C@H](O)C1=O [Astaxanthin]
induced mitochondrial respiration (C2C12 myotubes): +3.2% | % increase in maximal mitochondrial respiration (C2C12 myotubes): +3.3% | Relative Change (%) Compared to DMSO 0.1% (C2C12 myotubes): 2.6%

Zinc gluconate
Relative Change (%) Compared to CTX (interleukin 6 (IL-6)): −29.57% | % reduction IL-6 (interleukin 6 (IL-6)): −29.6% | reduction of CTX-mediated increase of IL-6 (interleukin 6 (IL-6)): 29.6%
